Common to all, as to assay: DTP human tumour cell line panel, 48 h
Assay [1] concerns BT-549 breast.
Assay [2] relates to COLO 205 colon.
Assay [3] concerns HL-60(TB) leukemia.
Assay [4] has as its system IGROV1 ovarian.
Assay [5] relates to MOLT-4 leukemia.
In assay [6] the test system is NCI-H226 lung.
Assay [7] concerns PC-3 prostate.
Assay [8] relates to SNB-19 CNS.

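Method: 48-hour compound exposure of cells in 96-well plates, five concentrations, linear interpolation of endpoints. The concentration for full growth arrest is given as TGI.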

On to `C[C@@](Br)(C(=O)O)[C@H](Br)C(=O)O`, for which the TGI in assay [1], in assay [2], in assay [3], in assay [4], in assay [5] and in assay [6] was more than 100 µM throughout. In addition, the TGI in assay [7] and in assay [8] was more than 100 µM in each case.

For the molecule `CCOP(=O)(CC1OC(CO)C(O)C1O)OCC` (stereo not given), the total growth inhibition concentration (TGI) in assay [1], in assay [2], in assay [3], in assay [4], in assay [5] and in assay [7] was more than 100 µM each time. This molecule also had a TGI in assay [8] of more than 100 µM.

As for `N#Cc1ccnc(C(=O)N2CCCC2C(=O)O)c1` (stereo not given), the TGI in assay [1], in assay [2], in assay [3], in assay [4], in assay [5] and in assay [6] was more than 100 µM throughout. For the same molecule, the total growth inhibition concentration (TGI) in assay [7] and in assay [8] was more than 100 µM each time.

Regarding `O=c1[nH]nc(-c2ccc([N+](=O)[O-])cc2)[nH]1`, the TGI in assay [1], in assay [2], in assay [3], in assay [4], in assay [5] and in assay [6] was more than 100 µM throughout. The TGI in assay [7] and in assay [8] was more than 100 µM throughout.

Consider `Cc1cccc2c(N)c3cccc(C(=O)NCC[N+](C)(C)[O-])c3nc12`, for which the concentration for total growth inhibition (TGI) in assay [1] was 41.8 µM; in assay [2], 40.4 µM; in assay [3], more than 100 µM; in assay [4], more than 100 µM; in assay [5], more than 100 µM; in assay [6], 27.8 µM. For the same molecule, the total growth inhibition concentration (TGI) in assay [7] was 60.4 µM; in assay [8] it was more than 100 µM.

For the molecule `COc1cccc(Nc2nc3c([nH]2)c(=O)n(C)c(=O)n3C)c1`, the concentration for total growth inhibition (TGI) in assay [2], in assay [3], in assay [4], in assay [5] and in assay [7] was more than 10 µM in each case.

Turning to `Fc1cccc(F)c1C1SCc2nc3cc(Cl)ccc3n21` (stereo not given), the concentration for total growth inhibition (TGI) in assay [1] is more than 45.6 µM; in assay [2], 36.6 µM; in assay [3], 41.3 µM; in assay [4], more than 72.4 µM; in assay [5], 54.7 µM; in assay [7] it was more than 100 µM. In assay [8], the TGI was more than 100 µM.

Take `O=C(O)C12C3C4(C(=O)O)C1C1(C(=O)O)C2C3(C(=O)O)C41` (stereo not given): the concentration for total growth inhibition (TGI) in assay [1], in assay [2], in assay [3], in assay [4], in assay [5] and in assay [7] was more than 100 µM each time. Moreover, the TGI in assay [8] was more than 100 µM.

On to `CC(C)(C)C#CI1OC(=O)c2ccccc21`, for which the concentration for total growth inhibition (TGI) in assay [1] is 11.7 µM; in assay [2], 4.65 µM; in assay [4], 12 µM; in assay [5], 10 µM; in assay [6], 15.2 µM; in assay [7], 19.5 µM. In addition, the total growth inhibition concentration (TGI) in assay [8] worked out at 22.9 µM.

Consider `Cn1c2ccccc2c2c3c(=O)[nH][nH]c(=O)c3c3c4ccccc4n(C)c3c21`, for which the total growth inhibition concentration (TGI) in assay [1], in assay [2], in assay [4], in assay [5], in assay [6] and in assay [7] was more than 100 µM throughout. This molecule showed a concentration for total growth inhibition (TGI) in assay [8] of more than 100 µM.

Regarding `CC(C)(C)[Si](C)(C)OC1CCOC1(O)c1ccccn1` (stereo not given), the concentration for total growth inhibition (TGI) in assay [1], in assay [2], in assay [3], in assay [4], in assay [5] and in assay [6] was more than 100 µM throughout. Moreover, the TGI in assay [7] and in assay [8] was more than 100 µM each time.

With `O=C1c2c(Br)sc(Br)c2[C@H]2OC(=S)N[C@@H]12`, the concentration for total growth inhibition (TGI) was 23.8 µM in assay [1]; 5.58 µM in assay [2]; 23.9 µM in assay [4]; 5 µM in assay [5]; 33.5 µM in assay [6]; 14 µM in assay [7]. Besides, the TGI in assay [8] was found to be 30 µM.

As for `Cc1ccc2nc(Nc3ccccc3C)c(Nc3ccccc3C)nc2c1`, the total growth inhibition concentration (TGI) in assay [2] is 30.6 µM; in assay [3], more than 74.6 µM; in assay [4], more than 100 µM; in assay [5], more than 100 µM; in assay [6], more than 89.7 µM; in assay [7], more than 100 µM. In assay [8], this molecule had a total growth inhibition concentration (TGI) of more than 100 µM.

`CC(Br)CN(CC(C)Br)c1ccc2c(c1)Cc1ccccc1-2` (stereo not given): the total growth inhibition concentration (TGI) was 35.1 µM in assay [1]; 27.5 µM in assay [2]; 15.6 µM in assay [3]; 20.7 µM in assay [4]; 34.6 µM in assay [5]; 22.7 µM in assay [7]. Further, the TGI in assay [8] worked out at 27.9 µM.

Consider `COc1ccc2c(c1)-c1nc(=S)n(CCN(C)C)c3ccc([N+](=O)[O-])c(c13)N2`, for which the TGI in assay [1] came out at 24 µM; in assay [2] it was 5.97 µM; in assay [4], 2.55 µM; in assay [5], 0.741 µM; in assay [6], 24.1 µM; in assay [7] it was 4.36 µM. The same molecule displayed a concentration for total growth inhibition (TGI) in assay [8] of 3.87 µM.

On to `CN(C)CCN1C(=O)N(CCN(C)C)c2c3cc(O)ccc3nc3c([N+](=O)[O-])ccc1c23`, for which the total growth inhibition concentration (TGI) in assay [1] amounted to 40.6 µM; in assay [2], 23.3 µM; in assay [4], 13.6 µM; in assay [6] it was 30.5 µM; in assay [7], 75 µM; in assay [8], 24.2 µM.

Take `Fc1ccc(OCc2ccc3nc(-c4ccccc4)c(Cl)nc3c2)cc1`: the concentration for total growth inhibition (TGI) in assay [1] was 85.8 µM; in assay [2] it was more than 100 µM; in assay [3], more than 100 µM; in assay [4] it was 74.3 µM; in assay [5], 60 µM; in assay [7], more than 100 µM.

The term TGI denotes the concentration giving total growth inhibition. Read a low TGI as greater sensitivity of the cells.

For the origin of these results see PubChem BioAssay (NCI).
